Where two headings read alike, the source gives them in different places.
Columns and labels:
NDM-1 = NDM-1 (Klebsiella pneumoniae, UniProt C7C422); assay: biochemical; format: biochemical
IMP-1 = IMP-1 (Serratia marcescens, UniProt P52699); assay: biochemical; format: biochemical; details: read-out: IMP-1 IC50
VIM-1 = VIM-1 (Pseudomonas aeruginosa (strain ATCC 15692 / DSM 22644 / CIP 104116 / JCM 14847 / LMG 12228 / 1C / PRS 101 / PAO1), UniProt A0A0F7KYQ8); assay: Enzyme activity: determination of IC50, fluorescence assay with CCF2-FA substrate (VIM-1); format: biochemical
[1] = system: Escherichia coli expressing NDM-1 (CLB30016); assay: Antibiotic potentiation activity: synergistic concentration (MITC95) with imipenem, OD600 growth; format: cell-based
Outline: (§1)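 CLB30005 was precultured on Mueller Hinton agar with 8 ug/ml imipenem, the other strains on trypticase soy agar with 5% sheep blood, overnight at 35 °C. Saline suspensions diluted 1:100 in 1.1× CAMHB received compound and 4 μg/ml imipenem, then 22–24 h at 35 °C before absorbance reading.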

[2] = system: Klebsiella pneumoniae expressing VIM-1 (IHMA599644); assay: as above; format: cell-based
Outline: as §1

[3] = system: Serratia marcescens expressing IMP-1 (CL5741); assay: as above; format: cell-based
Outline: as §1

[4] = IMP-1 enzyme, CCF2-FA substrate
[5] = VIM-1 IC50, VIM-1 enzyme, CCF2-FA substrate
[6] = (CLB30016, NDM-1), 95% growth inhibition
[7] = Klebsiella pneumoniae IHMA599644 (VIM-1), 95% growth inhibition
[8] = Serratia marcescens CL5741 (IMP-1), 95% growth inhibition
[9] = NDM-1 enzyme, CCF2-FA substrate, read-out: NDM-1 IC50
[10] = VIM-1 enzyme, CCF2-FA substrate, read-out: VIM-1 IC50
[11] = fluorescence assay with CCF2-FA substrate, read-out: NDM-1 IC50
[12] = fluorescence assay with CCF2-FA substrate
[13] = concentration giving 95% inhibition of bacterial growth
[14] = NDM-1 enzyme, CCF2-FA fluorescence assay, read-out: NDM-1 IC50
[15] = IMP-1 enzyme, CCF2-FA fluorescence assay
[16] = VIM-1 enzyme, CCF2-FA fluorescence assay, read-out: VIM-1 IC50
[17] = Escherichia coli expressing NDM-1 (CLB30016), 95% growth inhibition
[18] = Klebsiella pneumoniae expressing VIM-1 (IHMA599644), 95% growth inhibition
[19] = Serratia marcescens expressing IMP-1 (CL5741), 95% growth inhibition
[20] = fluorescence assay with CCF2-FA substrate, read-out: VIM-1 IC50
[21] = CLB30016 (NDM-1), 95% inhibition of bacterial growth
[22] = IHMA599644 (VIM-1), 95% inhibition of bacterial growth
[23] = CL5741 (IMP-1), 95% inhibition of bacterial growth

Sequence of IMP-1 (P52699 whole entry, looked up): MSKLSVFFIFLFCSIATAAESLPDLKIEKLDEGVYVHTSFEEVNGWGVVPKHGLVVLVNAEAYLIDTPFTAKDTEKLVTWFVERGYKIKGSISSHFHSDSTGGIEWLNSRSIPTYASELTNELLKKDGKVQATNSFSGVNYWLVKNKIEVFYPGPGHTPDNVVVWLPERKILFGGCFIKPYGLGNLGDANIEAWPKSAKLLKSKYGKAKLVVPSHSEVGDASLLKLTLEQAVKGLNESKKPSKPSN
Sequence of NDM-1 (C7C422 whole entry, looked up, species assumed): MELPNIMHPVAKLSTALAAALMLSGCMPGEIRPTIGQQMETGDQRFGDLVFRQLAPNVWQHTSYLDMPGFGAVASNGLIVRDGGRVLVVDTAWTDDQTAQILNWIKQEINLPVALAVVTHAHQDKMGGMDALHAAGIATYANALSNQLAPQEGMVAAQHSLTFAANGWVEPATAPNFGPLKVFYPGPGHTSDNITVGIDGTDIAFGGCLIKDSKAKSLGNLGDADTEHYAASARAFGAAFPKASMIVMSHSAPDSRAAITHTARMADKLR

Compound | IC50 (IMP-1; [4]) [nM] | Escherichia coli MITC95 [1, 6] [µM] | Klebsiella pneumoniae MITC95 [2, 7] [µM] | Serratia marcescens MITC95 [3, 8] [µM] | IC50 (NDM-1; [9]) [nM] | IC50 (NDM-1; [14]) [nM] | IC50 (IMP-1; [15]) [nM] | Escherichia coli MITC95 [1, 17] [µM] | Klebsiella pneumoniae MITC95 [2, 18] [µM] | Serratia marcescens MITC95 [3, 19] [µM] | other results
NS(=O)(=O)c1c(C(F)(F)F)ccc([C@H]2CC[C@@H](C3=NCCN3)CC2)c1-c1nnn[nH]1 [Example 505, 3-(cis 4-(4,5-dihydro-1H-imidazol-2-yl)cyclohexyl)-2-(1H-tetrazol-5-yl)-6-(trifluoromethyl)benzenesulfonamide] | 22.2 | 6.25 | 12.5 | 6.25 |  |  |  |  |  |  | IC50 (NDM-1): 9.54 nM; IC50 (VIM-1; [5]): 0.937 nM
NS(=O)(=O)c1cccc(-c2cccc3sc(N[C@H]4CC[C@H](N)CC4)nc23)c1-c1nnn[nH]1 [Example 641, 3-[2-[(4-aminocyclohexyl)amino]-1,3-benzothiazol-4-yl]-2-(1H-tetrazol-5-yl)benzenesulfonamide] | 26.5 | 6.25 | 25 | 25 | 1.02 |  |  |  |  |  | IC50 (VIM-1; [10]): 4.46 nM
NS(=O)(=O)c1cccc(-c2cccc3c2CNC3=O)c1-c1nnn[nH]1 [Example 120, 3-(1-oxoisoindolin-4-yl)-2-(1H-tetrazol-5-yl)benzenesulfonamide] |  |  |  |  |  |  |  |  |  |  | IC50 (NDM-1; [11]): 1.42 nM; IC50 (IMP-1; [12]): 777 nM; IC50 (VIM-1; VIM-1 IC50, fluorescence assay with CCF2-FA substrate): 4.99 nM; Escherichia coli expressing NDM-1 (CLB 30016) MITC95 [1, 13]: 0.7813 µM; Klebsiella pneumoniae expressing VIM-1 (IHMA 599644) MITC95 [2, 13]: 4.688 µM; Serratia marcescens expressing IMP-1 (CL5741) MITC95 [3, 13]: 18.75 µM
Nc1cnc2cc(-c3cccc(S(N)(=O)=O)c3-c3nnn[nH]3)ccc2c1 [Example 416, 3-(3-amino-7-quinolyl)-2-(1H-tetrazol-5-yl)benzenesulfonamide] |  |  |  |  |  | 2.42 | 56.5 | 2.344 | 25 | 6.25 | IC50 (VIM-1; [16]): 13.7 nM
CC(=O)NC1CCN(c2ccc(-c3cccc(S(N)(=O)=O)c3-c3nnn[nH]3)cn2)C1 (stereo not drawn) [Example 623, N-[1-[5-[3-sulfamoyl-2-(1H-tetrazol-5-yl)phenyl]-2-pyridyl]pyrrolidin-3-yl]acetamide] | 79.5 | 1.953 | 150 | 6.25 | 7.94 |  |  |  |  |  | IC50 (VIM-1; [5]): 207 nM
N#CCCc1ccc(-c2ccnc3ccccc23)c(-c2nn[nH]n2)c1S(N)(=O)=O [Example 453, 6-(2-cyanoethyl)-3-(quinolin-4-yl)-2-(2H-tetrazol-5-yl)benzenesulfonamide] |  |  |  |  |  | 6.88 | 111 | 4.688 | 6.25 | 12.5 | IC50 (VIM-1; [16]): 0.665 nM
CN(C)CCCCNCc1ccc(-c2cccc(S(N)(=O)=O)c2-c2nnn[nH]2)cc1 [Example 356, 4′-({[4-(dimethylamino)butyl]amino}methyl)-2-(1H-tetrazol-5-yl)biphenyl-3-sulfonamide] |  |  |  |  |  | 24.1 | 1540 | 1.563 | 75 | 12.5 | IC50 (VIM-1; [16]): 646 nM
NC1CCC(N[C@H]2CC[C@H](c3ccc(C(F)(F)F)c(S(N)(=O)=O)c3-c3nnn[nH]3)CC2)CC1 (stereo partly drawn) [Example 690, 3-{4-[(4-aminocyclohexyl)amino]cyclohexyl}-2-(1H-tetrazol-5-yl)-6-(trifluoromethyl)benzene sulfonamide] | 75.9 | 1.563 | 25 | 3.125 | 12.6 |  |  |  |  |  | IC50 (VIM-1; [5]): 5.26 nM
Nc1nc2ccc(-c3cccc(S(N)(=O)=O)c3-c3nn[nH]n3)cc2[nH]1 [Example 429] |  |  |  |  |  | 2.58 | 499 | 0.0625 | 2.344 | 6.25 | IC50 (VIM-1; [16]): 30 nM
NS(=O)(=O)c1c(C(F)(F)F)ccc([C@H]2CC[C@@H](C3CCNCC3)CC2)c1-c1nnn[nH]1 [Example 831, 3-((1s,4s)-4-(piperidin-4-yl)cyclohexyl)-2-(1H-tetrazol-5-yl)-6-(trifluoromethyl)benzenesulfonamide] |  |  |  |  |  |  |  |  |  |  | IC50 (NDM-1; [11]): 0.817 nM; IC50 (IMP-1; [12]): 0.892 nM; IC50 (VIM-1; [20]): 2.84 nM; Escherichia coli MITC95 [1, 21]: 2.344 µM; Klebsiella pneumoniae MITC95 [2, 22]: 50 µM; Serratia marcescens MITC95 [3, 23]: 3.125 µM
NC(=O)CCc1ccc(-c2ccc(C(F)(F)F)c(S(N)(=O)=O)c2-c2nn[nH]n2)cc1 [Example 449, 3-(3′-sulfamoyl-2′-(2H-tetrazol-5-yl)-4′-(trifluoromethyl)-[1,1′-biphenyl]-4-yl)propanamide] |  |  |  |  |  | 0.653 | 0.537 | 0.7813 | 6.25 | 0.1953 | IC50 (VIM-1; VIM-1 IC50, VIM-1 enzyme, CCF2-FA fluorescence assay): 0.815 nM
NS(=O)(=O)c1c(C(F)(F)F)ccc(-c2cccc3c2CNC3=O)c1-c1nn[nH]n1 [Example 525, 3-(1-Oxoisoindolin-4-yl)-2-(2H-tetrazol-5-yl)-6-(trifluoromethyl)benzenesulfonamide] | 6.85 | 3.125 | 4.688 | 12.5 | 0.541 |  |  |  |  |  | IC50 (VIM-1; [10]): 0.0897 nM
NC1CCCC(N2CC(c3ccc(-c4ccc(C(F)(F)F)c(S(N)(=O)=O)c4-c4nnn[nH]4)cc3)C2)C1 (stereo not drawn) [Example 810, 4′-[1-(3-aminocyclohexyl)azetidin-3-yl]-2-(1H-tetrazol-5-yl)-4-(trifluoromethyl)biphenyl-3-sulfonamide] |  |  |  |  |  |  |  |  |  |  | IC50 (NDM-1; [11]): 7.06 nM; IC50 (IMP-1; [12]): 8.92 nM; IC50 (VIM-1; [20]): 26.8 nM; Escherichia coli MITC95 [1, 21]: 3.125 µM; Klebsiella pneumoniae MITC95 [2, 22]: 100 µM; Serratia marcescens MITC95 [3, 23]: 6.25 µM
Nc1cccn2c(-c3cccc(S(N)(=O)=O)c3-c3nnn[nH]3)cnc12 [Example 418, 3-(8-aminoimidazo[1,2-a]pyridin-3-yl)-2-(1H-tetrazol-5-yl)benzenesulfonamide] |  |  |  |  |  | 1.18 | 118 | 0.3906 | 6.25 | 6.25 | IC50 (VIM-1; [16]): 13 nM
NS(=O)(=O)c1c(C(F)(F)F)ccc(-c2ccc(C3CCN(CCC4CCNCC4)CC3)cc2)c1-c1nnn[nH]1 [Example 793, 4′-[1-(2-piperidin-4-ylethyl)piperidin-4-yl]-2-(1H-tetrazol-5-yl)-4-(trifluoromethyl)biphenyl-3-sulfonamide] |  |  |  |  |  |  |  |  |  |  | IC50 (NDM-1; [11]): 7 nM; IC50 (IMP-1; [12]): 1.02 nM; IC50 (VIM-1; [20]): 4.66 nM; Escherichia coli MITC95 [1, 21]: 1.563 µM; Klebsiella pneumoniae MITC95 [2, 22]: 25 µM; Serratia marcescens MITC95 [3, 23]: 3.125 µM
NS(=O)(=O)c1c(C(F)(F)F)ccc(-c2cccc3c2ccc[n+]3[O-])c1-c1nn[nH]n1 [Example 514, 5-(3-Sulfamoyl-2-(2H-tetrazol-5-yl)-4-(trifluoromethyl)phenyl)quinoline 1-oxide] | 6.08 | 3.125 | 9.375 | 1.172 | 1.15 |  |  |  |  |  | IC50 (VIM-1; [10]): 0.138 nM
CC(CCCN)N[C@H]1CC[C@H](c2ccc(C(F)(F)F)c(S(N)(=O)=O)c2-c2nnn[nH]2)CC1 (stereo partly drawn) [Example 688, 3-{4-[(4-amino-1-methylbutyl)amino]cyclo-hexyl)-2-(1H-tetrazol-5-yl)-6-(trifluoromethyl)benzene sulfonamide] | 158 | 1.563 | 12.5 | 6.25 | 44.1 |  |  |  |  |  | IC50 (VIM-1; [10]): 13.4 nM
